Assay results reported in article PMC11796312, “Multifunctional, Fluorene‐Based Modulator of Cholinergic and GABAergic Neurotransmission as a Novel Drug Candidate for Palliative Treatment of Alzheimer's Disease” (Angewandte Chemie (International Ed. in English), 2024).
“And” between values parts separate entries of the source, which are not always exact repeats. Equal entries are not always repeated. “Also recorded” adds a separate entry of the source.

Assays:
[1] = Metabolic stability in human liver microsomes; assay type: in vitro ADME; conditions: 120 min incubation with HLMs
Method: The in silico prediction of the most probable sites of metabolism was done by MetaSite 6.0.1 software (Molecular Discovery Ltd, Hertfordshire, UK). The metabolic pathways determination in vitro was performed by 120 min compounds incubation with human liver microsomes (HLMs) purchased from Sigma-Aldrich, St. Louis, MO, USA. The reactions were conducted in 10 mM Tris–HCl buffer (pH 7.4) at 37 °C in the presence of NADPH Regeneration System (Promega, Madison, WI, USA). UPLC/MS analyses were done using the Waters ACQUITY TQD system with the TQ Detector (Waters, Milford, USA).
UPLC chromatograms of the reaction mixtures and the proposed structures of metabolites.
Figure S46. UPLC spectra after 120 min incubation of compound 6 with HLMs. 89.57% of the parent compound remained in the reaction mixture. One metabolite (M1, m/z = 460.30) […]
(1 picture or pasted object on this page, not shown here)

[2] = tested on: mice treated with scopolamine; experiment: Barnes maze (BM) task; assay type: in vivo, C57BL/6J mice
Method: (§1) Animals and housing conditions
(§2) In all pharmacodynamic in vivo experiments, except for the Barnes maze (BM) task, adult male Albino Swiss (CD-1) mice weighing between 18 and 22 g and purchased from the Animal Breeding Farm of the Faculty of Pharmacy, Jagiellonian University Medical College were used. In BM task, C57BL/6J mice of the same weight (Animalab, Poland) were used.
Animals were housed in cages (10 mice per cage) at a constant temperature of 22 ± 2 °C, humidity of 55 ± 10%, and a light/dark (12:12) cycle (lights on at 7 AM). Before the experiments, the animals had unlimited access to food and water. Specified conditions for the maintenance of mice were ensured throughout the experiments, including tree bedding (Transwior, Poland) and cage enrichment (tunnels, nesting material, wooden igloos, etc.). For the behavioral test, the mice were selected randomly; each group consisted of 7-12 mice. The experiments were performed between 9 AM and 3 PM. After in vivo tests, the animals were […]
Ethical approval statement
The procedures for the maintenance and treatment of laboratory animals were approved by the 1st Local Ethics Committee of the Jagiellonian University in Krakow (Approvals No.
524/2021, 618/2022), and the treatment of animals was in full accordance with ethical […]
Drugs and dose selection for the in vivo tests
For in vivo assays 6 was suspended in 1% Tween 80 (Sigma Aldrich, Poland) and administered intraperitoneally (i.p.) 60 min before the acquisition trial of the passive avoidance (PA) task, BM task and 60 min before the forced swim test (FST), four-plate test (FPT) and elevated plus maze (EPM) test. Doses 10 mg/kg and 30 mg/kg were the starting […]
doses for behavioral assays. Lower doses were also assessed if at least one of them was […]
Scopolamine hydrobromide used at the dose of 1 mg/kg for the induction of learning and memory deficits was supplied by Sigma Aldrich (Poland). The dose of scopolamine was chosen based on our previous studies[44,45] and available literature data.[46] […]
Effect on spatial learning and memory – Barnes maze task
Spatial learning and memory in mice were also assessed using the BM task.[47] This task was performed with the BM apparatus (Panlab-Harvard Apparatus, Spain). It consists of a circular, dry, open platform surface equipped with 18 holes around the perimeter of the platform and a small dark recessed chamber located under one of them. Visual extra-maze cues (pictures of colored geometric figures with contrasting backgrounds placed at a distance of 1 m from the platform) were provided to facilitate learning. A weak aversive stimulus (light 600 lx) was applied to increase the animals’ motivation to escape from the circular platform.
The spatial acquisition trial was performed during the first 4 days of the experiment. On the first day of the test, an additional adaptation period preceded a proper trial. In this phase, mice were individually placed in a cylindrical black start chamber in the middle of the circular maze. Ten seconds later, the mouse was released from the start chamber, the light was turned on, and the animal was gently guided to the escape box (a small dark recessed chamber under the BM platform), where it remained for the next 2 min. This phase was not preceded by drug […]
In the spatial acquisition phase, each mouse was subjected to four trials daily, keeping 15-min intervals between each trial. […]

[3] = tested on: mice; experiment: Forced swim test (FST); assay type: in vivo; conditions: 1 mg/kg i.p., vs control
Method: as §1, §2
Animals were housed in cages (10 mice per cage) at a constant temperature of 22 ± 2 °C, humidity of 55 ± 10%, and a light/dark (12:12) cycle (lights on at 7 AM). Before the experiments, the animals had unlimited access to food and water. […]
Briefly, mice were individually placed in a glass cylinder (25 cm high, 10 cm in diameter) containing 11 cm of water maintained at 23–25 °C and were left therein for 6 min. […] The total duration of immobility was measured during the final 4 min of a 6-min test session. […]
The four-plate apparatus (FPT; Bioseb, France) consists of a cage (25 × 18 × 16 cm) that is floored with four rectangular metal plates (11 × 8 cm). […] The number of punished crossings was counted […]
of the closed arms. […] The following parameters were measured in this test: time spent in open arms of the EPM device and the number of entries to open arms. […]

[4] = 10 mg/kg i.p. + scopolamine, vs scopolamine control
[5] = 10 mg/kg, retention trial, vs scopolamine control

O[C@H](CNCC1CC1)[C@H](Cc1ccccc1)NC1c2ccccc2-c2ccccc21 [Compound 6]
parent compound remaining [1]: 90% and 89.57% | latency to target, acquisition trial [2, 4]: Statistically significant differences were also observed on day 4; also recorded: statistically significantly reduced latency to target | number of errors, acquisition phase (days 1-4) [2, 4]: no statistically significant differences in the number of errors | number of errors, day 5 ([2]; 10 mg/kg, drug-off trial): no significant differences among groups | latency to former target location, day 12 [2, 5]: A similar effect was noted; also recorded: significantly shortened the latency to former target location | number of errors, day 12 [2, 5]: significantly reduced number of errors made; also recorded: reduced the number of errors | duration of immobility [3]: reduced immobility; also recorded: mild yet statistically significant antidepressant activity
